Measurements reported in patent publication US20250352541A1, “THERAPEUTIC FOR CANCER REFRACTORY TO IMMUNE CHECKPOINT INHIBITOR” (Sumitomo Pharma Co., Ltd., priority 2022, published 2025).

Columns and labels:
CHK1 = CHK1 (Homo sapiens (Human), UniProt O14757); test: CHK1 inhibitory activity test (IMAP TR-FRET)
Method: IMAP TR-FRET Screening Express Kit (R8160) was obtained from Molecular Devices. […] FAM-PKAtide (R7255, Molecular Devices) and FAM-Phospho-PKAtide (R7304, Molecular Devices) were admixed after dilution, and calibration standard systems for phosphorylation levels from 0 to 100% were created. 5 μL of a compound dissolved in a 0.4% DMSO solution was added to a 384 well plate. A compound study group to which 5 μL of each of CHK1, CHK1tide, and ATP was added, and a standard group to which 20 μL of standard was added were created, and subjected to a kinase reaction for 3 hours at 30° C. Subsequently, 60 μL of Binding Reagent (80% Buffer A, 20% Buffer B, 1:600 Binding Reagent, 1:400 Tb-Donor) was added for a binding reaction for 2 hours at room temperature.

[1] = tested on: mouse breast cancer cells EMT6; test: Intracytoplasmic ssDNA evaluation test in cells; format: cell-based; conditions: EMT6, 24 hours treatment, versus DMSO
Method: (§1) After 24 hours from seeding of mouse breast cancer cells EMT6 and mouse renal cancer cells Renca, the cells were treated with Example 1 and DMSO and cultured for 24 hours. Thereafter, the cells were collected, and cytoplasmic components were extracted using NE-PER Nuclear and Cytoplasmic Extraction so Reagents (Thermo Fisher Scientific Inc.). After protein quantification and concentration adjustment, ssDNA was quantified using Qbit ssDNA Assay Kit (Thermo Fisher Scientific Inc.).

[2] = tested on: mouse renal cancer cells Renca; test: Intracytoplasmic ssDNA evaluation test in cells; format: cell-based; conditions: 24 hours treatment, versus DMSO
Method: as §1

[3] = Liposome encapsulation test (Test Example 6); format: physicochemical
Method: 6.48 g of hydrogenated soybean phosphatidylcholine (COATSOME NC-21E, NOF Corporation), 2.32 g of cholesterol (Sigma) and 2.06 g of distearoylphosphatidylethanolamine-methoxypolyethylene glycol 2000 (SUNBRIGHT DSPE-020CN, NOF Corporation) were dissolved in 560 mL of t-butyl alcohol heated to 65° C. The solution was frozen with dry ice/acetone bath and t-butyl alcohol was then removed by evaporation under reduced pressure to obtain a lipid mixture.
200 mL of 250 mM ammonium sulfate solution was added to the lipid mixture. The resulting mixture was heated to 65° C. and dispersed with a homogenizer (ULTRA-TURRAX, IKA) to obtain a crude liposome dispersion. […] The prepared amount was increased or decreased appropriately.
2 to 3 mg of the test compound was weighed out. […] An aqueous 1 mol/L hydrochloric acid or 1 mol/L sodium hydroxide solution was added to adjust the pH to 5.5 to 7. […] Insolubles, when present, were removed by centrifugation for 5 minutes at 15,000× g.
The liposome encapsulation ratio was calculated as follows.
100 μL of liposome solution was passed through an ultrafiltration filter (Amicon Ultra, 100K, 0.5 mL, Merck), and centrifuged at 4° C. at 15,000×g for 10 minutes. The concentration of the compound in the filtrate after ultrafiltration was measured by HPLC as the unencapsulated compound concentration.
The liposome solution was diluted with a trifluoroacetic acid/water/methanol mixture (0.1/25/75) and was left standing for 10 minutes or longer at 5° C. The solution was centrifuged for 5 minutes at 15,000× g to remove insolubles. The compound concentration in the supernatant was measured by HPLC as the compound concentration in the liposome solution.
The encapsulation ratio and the encapsulation efficiency were calculated by the following equations.
HPLC measurement conditions are the following.

[4] = Liposome encapsulation test of Example 1 (Test Example 6a); format: physicochemical
[5] = tested on: Human bone marrow CD34 positive hematopoietic stem cells; test: Human bone marrow cell colony formation test (hemotoxicological evaluation); format: cell-based; conditions: 100 nM; for Colony count (/well) mean: 48 hours, then about 2 weeks culture
Method: Human bone marrow CD34 positive hematopoietic stem cells were obtained from Lonza K.K. The frozen cells were thawed in a medium prepared by mixing a Methocult Express medium and a 10% fetal bovine serum with 1% penicillin/streptomycin containing RPMI 1640 medium at 9:1. 5000 cells were seeded per well in a 6 well plate and cultured overnight at 37° C. in the presence of 5% CO2. The evaluated compound was added so that the final concentration of DMSO would be 0.1% and 100 nM, and the cells were cultured for 48 hours. The cells were retrieved and washed with PBS. ⅙ of the amount of cells was seeded in a 12 well plate and cultured for about 2 weeks at 37° C. in the presence of 5% CO2. After completion of culture, the number of colonies formed was calculated using Thiazolyl blue tetrazolium bromide (MTT).

ES-2 cells [6] = test: Cell growth suppression experiment; format: cell-based
Method: ES-2 cells were obtained from the American Type Culture Collection (ATCC). These cells were cultured at 37° C. in the presence of 5% CO2 in a 10% fetal bovine serum, 1% penicillin/streptomycin containing McCoy's 5a medium.
500 cells were seeded for each well in a 384-well plate, and the evaluated compound was added so that the final concentration of DMSO would be 0.1% to culture the cells for 2 days. After completion of the culture, the cell viability rate was calculated using CellTiter-Glo® 3D Reagent (Promega, G968B).
The results of cell growth suppression test on representative compounds of the present disclosure are listed in the following table based on the ranking of I, IT, III, IV, and V (1000 nM<I, 1000 nM>TI>300 nM, 300 nM>III>100 nM, 100 nMV>IV>30 nM, 30 nM>V).

hERG current = hERG current (Homo sapiens (Human), UniProt Q12809); test: hERG current blocking test; conditions: IC50 of hERG divided by IC50 of CHK1 inhibition
Method: The test compounds were added to cultured hERG (human Ether-a-go-go Related Gene) gene stably expressing CHO cell line cells to achieve 0.27 to 100 μM.

CYP3A4 = CYP3A4 (Homo sapiens (Human), UniProt P08684); test: CYP3A4 MBI and enzyme inactivation clearance evaluation; format: in vitro ADME
Method: The effect and mode of inhibition of the test compound on CYP3A4 were evaluated using a human liver microsome as an enzyme source and midazolam or testosterone as a substrate. […] The IC50 value was calculated from a concentration plot.

[7] = tested on: Human bone marrow CD34 positive hematopoietic stem cells; test: Human bone marrow cell myeloid lineage differentiation induction test; format: cell-based; conditions: 3 nM
Method: Human bone marrow CD34 positive hematopoietic stem cells were obtained from Lonza K. K. The frozen cells were thawed in a 1% fetal bovine serum containing IMDM medium and suspended in a Complete hemaTox® Myeloid Medium. 1000 cells were seeded per well in a 96-well plate. The evaluated compound was added so that the final concentration of DMSO would be 0.1% and 3 nM, and the cells were cultured for 7 days at 37° C. in the presence of 5% CO2. After completion of culture, half of the amount of cell suspension was retrieved from each well. The luminescence was measured using CellTiter-Glo® 3D Reagent (Promega, G968B) to calculate the cell survival percentage by the following equation.

neutrophils = conditions: 30 mg/kg, 14 days, 2 times/week, blood 96 hours after the final administration
Method: The test compound was weighed out. An empty liposome solution with a total lipid concentration of 50 mM was added so that the compound concentration would be 2 mg/mL, and 1 mol/L hydrochloric acid was added to adjust the pH to 6 to 7. Alternatively, 10 mM L-histidine buffer/10% sucrose solution (pH 6.5) and hydrochloric acid were added to the test compound to dissolve or disperse the compound, and an empty liposome solution with a total lipid concentration of 75 mM was added so that the compound concentration would be 2 mg/mL, and the pH was adjusted to 6 to 7.
Blood was collected 96 hours after the final administration to measure the neutrophil count.

ES-2 cells [8] = test: Concomitantly used drug efficacy evaluation test using tumor-bearing mice transplanted with ES-2 cells (gemcitabine); format: in vivo, BALB/c-nu/nu mice; conditions: Peritoneal, 30 mg/kg, 14 days, 2 times/week
Source text: The test compound was weighed out.

ARK5/NUAK1 = ARK5/NUAK1 (Homo sapiens (Human), UniProt O60285); test: Kinase selectivity test (HotSpot Full Panel Kinase profiling); format: biochemical; conditions: ARK5/NUAK1, compound 100 nM, ATP 10 μm; read-out: Residual activity (%)
[9] = tested on: head and neck squamous cell carcinoma; conditions: head and neck squamous cell carcinoma (Non Patent Literature 7); cited from earlier work
[10] = concentration upon compound introduction 3 mg/mL
[11] = concentration upon compound introduction 2 mg/mL

Sequence of CHK1 (O14757 whole entry): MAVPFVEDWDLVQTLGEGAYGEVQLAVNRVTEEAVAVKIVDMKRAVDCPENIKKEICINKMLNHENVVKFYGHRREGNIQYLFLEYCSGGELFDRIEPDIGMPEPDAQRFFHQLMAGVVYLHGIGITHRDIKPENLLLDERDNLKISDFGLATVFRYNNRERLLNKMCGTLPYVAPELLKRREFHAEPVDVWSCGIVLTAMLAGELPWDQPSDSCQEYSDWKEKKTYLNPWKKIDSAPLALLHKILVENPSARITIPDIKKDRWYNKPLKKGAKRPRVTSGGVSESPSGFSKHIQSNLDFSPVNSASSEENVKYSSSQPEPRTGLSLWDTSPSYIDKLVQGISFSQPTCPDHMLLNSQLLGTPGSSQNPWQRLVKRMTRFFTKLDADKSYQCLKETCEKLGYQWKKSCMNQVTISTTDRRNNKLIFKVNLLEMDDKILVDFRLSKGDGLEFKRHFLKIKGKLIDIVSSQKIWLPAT
Sequence of CYP3A4 (P08684 whole entry): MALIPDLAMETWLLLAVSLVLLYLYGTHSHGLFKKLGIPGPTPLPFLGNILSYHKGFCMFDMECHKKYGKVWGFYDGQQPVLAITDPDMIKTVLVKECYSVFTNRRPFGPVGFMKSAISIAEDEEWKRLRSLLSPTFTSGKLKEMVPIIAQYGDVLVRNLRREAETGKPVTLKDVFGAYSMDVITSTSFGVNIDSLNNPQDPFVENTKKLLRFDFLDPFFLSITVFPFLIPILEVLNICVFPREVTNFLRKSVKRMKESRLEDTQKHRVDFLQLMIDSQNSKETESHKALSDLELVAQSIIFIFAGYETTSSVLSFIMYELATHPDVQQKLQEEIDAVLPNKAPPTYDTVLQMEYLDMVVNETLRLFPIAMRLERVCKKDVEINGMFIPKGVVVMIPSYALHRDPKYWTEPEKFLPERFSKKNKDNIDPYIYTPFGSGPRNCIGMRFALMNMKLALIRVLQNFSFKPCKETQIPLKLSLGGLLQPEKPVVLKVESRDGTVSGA
Sequence of hERG current (Q12809 whole entry): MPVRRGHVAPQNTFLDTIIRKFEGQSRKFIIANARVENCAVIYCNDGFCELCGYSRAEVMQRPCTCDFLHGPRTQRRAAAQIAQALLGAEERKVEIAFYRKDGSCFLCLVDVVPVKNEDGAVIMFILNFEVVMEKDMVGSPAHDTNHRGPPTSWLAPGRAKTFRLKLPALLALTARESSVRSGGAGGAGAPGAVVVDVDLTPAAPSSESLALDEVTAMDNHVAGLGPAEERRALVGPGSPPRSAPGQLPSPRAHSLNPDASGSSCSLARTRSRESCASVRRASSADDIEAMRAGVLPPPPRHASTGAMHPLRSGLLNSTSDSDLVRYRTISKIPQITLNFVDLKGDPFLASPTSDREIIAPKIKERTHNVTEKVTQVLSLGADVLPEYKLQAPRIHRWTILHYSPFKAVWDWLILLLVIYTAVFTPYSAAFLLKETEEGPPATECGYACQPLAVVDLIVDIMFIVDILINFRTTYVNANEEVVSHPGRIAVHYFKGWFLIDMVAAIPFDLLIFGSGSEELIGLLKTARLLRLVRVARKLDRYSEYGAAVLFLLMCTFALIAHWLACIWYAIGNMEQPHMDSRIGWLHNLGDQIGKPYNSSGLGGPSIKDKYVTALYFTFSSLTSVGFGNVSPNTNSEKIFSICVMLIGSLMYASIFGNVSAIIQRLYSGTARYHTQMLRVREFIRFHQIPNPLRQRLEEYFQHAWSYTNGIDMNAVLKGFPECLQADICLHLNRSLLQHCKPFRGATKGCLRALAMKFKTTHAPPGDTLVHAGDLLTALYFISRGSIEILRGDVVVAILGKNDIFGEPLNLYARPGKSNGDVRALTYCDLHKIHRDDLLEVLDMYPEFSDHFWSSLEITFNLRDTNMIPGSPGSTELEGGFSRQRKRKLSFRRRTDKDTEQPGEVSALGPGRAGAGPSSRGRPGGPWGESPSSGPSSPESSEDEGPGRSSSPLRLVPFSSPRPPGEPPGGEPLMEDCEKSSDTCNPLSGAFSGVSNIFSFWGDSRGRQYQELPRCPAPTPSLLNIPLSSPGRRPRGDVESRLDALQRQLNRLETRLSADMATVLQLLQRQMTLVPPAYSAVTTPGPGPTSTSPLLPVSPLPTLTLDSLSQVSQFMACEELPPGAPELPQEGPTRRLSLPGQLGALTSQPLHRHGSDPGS
Sequence of ARK5/NUAK1 (O60285 whole entry): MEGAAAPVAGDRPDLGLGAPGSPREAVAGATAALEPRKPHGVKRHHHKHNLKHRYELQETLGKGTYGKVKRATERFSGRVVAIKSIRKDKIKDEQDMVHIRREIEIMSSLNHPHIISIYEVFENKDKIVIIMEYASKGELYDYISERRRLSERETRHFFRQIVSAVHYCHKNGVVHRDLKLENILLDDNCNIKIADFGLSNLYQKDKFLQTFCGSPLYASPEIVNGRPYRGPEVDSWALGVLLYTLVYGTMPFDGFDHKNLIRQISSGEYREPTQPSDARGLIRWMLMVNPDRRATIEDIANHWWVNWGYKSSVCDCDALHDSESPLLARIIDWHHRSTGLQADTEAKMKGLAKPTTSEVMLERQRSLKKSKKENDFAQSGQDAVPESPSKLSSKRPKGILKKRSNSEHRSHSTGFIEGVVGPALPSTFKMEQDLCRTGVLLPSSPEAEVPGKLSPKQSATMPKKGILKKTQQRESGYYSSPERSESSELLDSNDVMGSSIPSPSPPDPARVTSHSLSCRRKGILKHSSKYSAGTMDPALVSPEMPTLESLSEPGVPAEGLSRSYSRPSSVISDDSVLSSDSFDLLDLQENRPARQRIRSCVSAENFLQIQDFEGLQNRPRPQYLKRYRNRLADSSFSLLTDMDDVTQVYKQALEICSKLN

COc1ccnc(OCCCN)c1-c1cc(Nc2cnc(C#N)cn2)n[nH]1 [Example 1, 5-({5-[2-(3-aminopropoxy)-4-methoxypyridin-3-yl]-1H-pyrazol-3-yl}amino)pyrazine-2-carbonitrile]
CHK1 inhibitory activity relative to prexasertib (CHK1): ≥ 5 fold | IC50 (CHK1): < 0.1 nM | effect of suppressing CHK1 activity compared with prexasertib (CHK1): more potent effect of suppressing CHK1 activity than prexasertib | increase of ssDNA in cytoplasm [1]: 1.3 times | increase of ssDNA in cytoplasm [2]: 1.5 times | encapsulation efficiency [3]: ≥ 80% | Encapsulation efficiency (%) [3, 10]: 87.4% | liquid viscosity during the liposome encapsulation procedure ([3]; pH adjusted by adding 1 mol/L hydrochloric acid): increase in viscosity was not found | liposome encapsulation efficiency [4]: ≥ 90% | Encapsulation efficiency (%) [4, 11]: 91.3% | Encapsulation efficiency (%) [4, 10]: 91.6% | Encapsulation efficiency (%) ([4]; concentration upon compound introduction 4 mg/mL): 92.2% | effect of suppressing human bone marrow cell colony formation [5]: does not exhibit an effect of suppressing human bone marrow colony formation | Colony count (/well) mean [5]: 34 /well | cell growth suppression effect compared with prexasertib (ES-2 cells [6]): excellent cell growth suppression effect that is equivalent to that of prexasertib | hERG/CHK1 (hERG current): >115000 | inhibition of CYP3A4 based on MBI (CYP3A4): do not exhibit inhibition of CYP3A4 based on MBI | Factor of change in IC50 value (CYP3A4; human liver microsome, pre-incubation in the presence of NADPH): Not Detected | effect of suppressing myeloid cells induced to differentiate from human bone marrow cells [7]: does not exhibit an effect of suppressing myeloid cells induced to differentiate from human bone marrow cells

Nc1ccn([C@@H]2O[C@H](CO)[C@@H](O)C2(F)F)c(=O)n1 [Gemcitabine]
Ratio of residual neutrophils (%) (neutrophils): 39% | CR (%) (ES-2 cells [8]): 0% | T/C (%) (ES-2 cells [8]): 9%

COc1cccc(OCCCN)c1-c1cc(Nc2cnc(C#N)cn2)n[nH]1 [Prexasertib, reference compound]
remaining activity at 0.1 µM (ARK5/NUAK1): 17.9% | Compound concentration in liposome solution [3, 11]: 2160 µg/mL | effect of suppressing human bone marrow cell colony formation [5]: exhibits an effect of suppressing human bone marrow cell colony formation | Colony count (/well) mean [5]: 19 /well | inhibition of CYP3A4 based on MBI (CYP3A4): exhibits inhibition of CYP3A4 based on MBI | effect of suppressing myeloid cells induced to differentiate from human bone marrow cells [7]: exhibited an effect of suppressing myeloid cells induced to differentiate from human bone marrow cells

nivolumab
overall response rate [9]: 13.3%
